{"source": "ChEMBL document CHEMBL3137667", "about": "“[Drug-induced liver injury; fourteenth updated edition of the bibliographic database of liver injuries and related drugs]” (Gastroenterol Clin Biol, 2004);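 on Hepatotoxicity (association with vascular disease): count of indexed literature references reporting vascular liver injury in humans, e.g. peliosis hepatitis, hepatic veno-occlusive disease or Budd-Chiari syndrome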;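 on Hepatotoxicity (benign tumour): value is a count of indexed literature references citing a benign tumour confirmed by histopathology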;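 on Hepatotoxicity (choleostasis): human cholestatic liver injury, shown by histopathology or by peak ALT or AST elevation over alkaline phosphatase ratio below 2, value counts indexed literature reports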;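 on Hepatotoxicity (chronic liver disease): chronic liver injury confirmed by histopathology or persistently raised serum aminotransferase activity beyond 6 months, value given as the count of indexed literature references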;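 on Hepatotoxicity (cirrhosis): value is a count of indexed literature references reporting cirrhosis confirmed by histopathology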;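 on Hepatotoxicity (cytolytic): human cytolytic liver injury, shown by histopathology or by a ratio above 5 of peak ALT or AST elevation to alkaline phosphatase elevation, value counts indexed references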;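 on Hepatotoxicity (granulomatous hepatitis): value is a count of indexed literature references reporting granulomatous liver disease confirmed by histopathology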;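 on Hepatotoxicity (malignant tumour): malignant tumour confirmed by histopathology, value gives the count of indexed literature references reporting it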;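 on Hepatotoxicity (severe hepatitis): human clinical data: severe hepatitis, meaning potentially life-threatening liver failure or clinically observed cases, the value counts how many indexed literature references report it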;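 on Hepatotoxicity (steatosis): steatosis confirmed by histopathology, value is the count of indexed references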", "key": {"[1]": {"conditions": "human"}, "[2]": {"conditions": "human", "remark": "listed apart in the source"}, "[3]": {"conditions": "human", "remark": "listed apart in the source"}, "[4]": {"conditions": "human, serum, 4383 h"}, "[5]": {"conditions": "human", "remark": "listed apart in the source"}, "[6]": {"conditions": "human", "remark": "listed apart in the source"}, "[7]": {"conditions": "human, serum"}, "[8]": {"conditions": "human", "remark": "listed apart in the source"}, "[9]": {"experiment": "Highest frequency of acute liver toxicity observed during clinical trials, expressed as a percentage. [column '% AIGUE' in source]", "conditions": "human"}, "[10]": {"experiment": "Highest frequency of moderate liver toxicity observed during clinical trials, expressed as a percentage. [column '% BIOL' in source]", "conditions": "human"}, "[11]": {"conditions": "human", "remark": "listed apart in the source"}, "[12]": {"conditions": "human", "remark": "listed apart in the source"}, "[13]": {"conditions": "human", "remark": "listed apart in the source"}, "[14]": {"conditions": "human, serum", "remark": "listed apart in the source"}}, "data": [{"molecule": "O=C1Cc2cc(CCN3CCN(c4nsc5ccccc45)CC3)c(Cl)cc2N1", "note": "[ZIPRASIDONE]", "values": [{"measurement": "Hepatotoxicity (cytolytic)", "setting": "[1]", "result": 0}, {"measurement": "Hepatotoxicity (benign tumour)", "setting": "[2]", "result": 0}, {"measurement": "Hepatotoxicity (malignant tumour)", "setting": "[3]", "result": 0}, {"measurement": "Hepatotoxicity (chronic liver disease)", "setting": "[4]", "result": 0}, {"measurement": "Hepatotoxicity (choleostasis)", "setting": "[5]", "result": 0}, {"measurement": "Hepatotoxicity (cirrhosis)", "setting": "[6]", "result": 0}, {"measurement": "Hepatotoxicity (moderate)", "setting": "[7]", "result": 1}, {"measurement": "Hepatotoxicity (severe hepatitis)", "setting": "[8]", "result": 0}, {"measurement": "Hepatotoxicity (acute)", "setting": "[9]", "result": 0, "unit": "%"}, {"measurement": "Hepatotoxicity (moderate)", "setting": "[10]", "result": 1.2, "unit": "%"}, {"measurement": "Hepatotoxicity (steatosis)", "setting": "[11]", "result": 0}, {"measurement": "Hepatotoxicity (association with vascular disease)", "setting": "[12]", "result": 0}, {"measurement": "Hepatotoxicity (granulomatous hepatitis)", "setting": "[13]", "result": 0}, {"measurement": "Hepatotoxicity (acute)", "setting": "[14]", "result": 0}]}, {"molecule": "C[C@H](CSC(=O)c1ccccc1)C(=O)N1C[C@@H](Sc2ccccc2)C[C@H]1C(=O)O", "note": "[ZOFENOPRIL]", "values": [{"measurement": "Hepatotoxicity (cytolytic)", "setting": "[1]", "result": 0}, {"measurement": "Hepatotoxicity (benign tumour)", "setting": "[2]", "result": 0}, {"measurement": "Hepatotoxicity (malignant tumour)", "setting": "[3]", "result": 0}, {"measurement": "Hepatotoxicity (chronic liver disease)", "setting": "[4]", "result": 0}, {"measurement": "Hepatotoxicity (choleostasis)", "setting": "[5]", "result": 0}, {"measurement": "Hepatotoxicity (cirrhosis)", "setting": "[6]", "result": 0}, {"measurement": "Hepatotoxicity (moderate)", "setting": "[7]", "result": 1}, {"measurement": "Hepatotoxicity (severe hepatitis)", "setting": "[8]", "result": 0}, {"measurement": "Hepatotoxicity (acute)", "setting": "[9]", "result": 0, "unit": "%"}, {"measurement": "Hepatotoxicity (moderate)", "setting": "[10]", "result": 5.3, "unit": "%"}, {"measurement": "Hepatotoxicity (steatosis)", "setting": "[11]", "result": 0}, {"measurement": "Hepatotoxicity (association with vascular disease)", "setting": "[12]", "result": 0}, {"measurement": "Hepatotoxicity (granulomatous hepatitis)", "setting": "[13]", "result": 0}, {"measurement": "Hepatotoxicity (acute)", "setting": "[14]", "result": 0}]}, {"molecule": "CN(C)CCc1c[nH]c2ccc(C[C@H]3COC(=O)N3)cc12", "note": "[ZOLMITRIPTAN]", "values": [{"measurement": "Hepatotoxicity (cytolytic)", "setting": "[1]", "result": 0}, {"measurement": "Hepatotoxicity (benign tumour)", "setting": "[2]", "result": 0}, {"measurement": "Hepatotoxicity (malignant tumour)", "setting": "[3]", "result": 0}, {"measurement": "Hepatotoxicity (chronic liver disease)", "setting": "[4]", "result": 0}, {"measurement": "Hepatotoxicity (choleostasis)", "setting": "[5]", "result": 0}, {"measurement": "Hepatotoxicity (cirrhosis)", "setting": "[6]", "result": 0}, {"measurement": "Hepatotoxicity (moderate)", "setting": "[7]", "result": 1}, {"measurement": "Hepatotoxicity (severe hepatitis)", "setting": "[8]", "result": 0}, {"measurement": "Hepatotoxicity (acute)", "setting": "[9]", "result": 0, "unit": "%"}, {"measurement": "Hepatotoxicity (moderate)", "setting": "[10]", "result": 0, "unit": "%"}, {"measurement": "Hepatotoxicity (steatosis)", "setting": "[11]", "result": 0}, {"measurement": "Hepatotoxicity (association with vascular disease)", "setting": "[12]", "result": 0}, {"measurement": "Hepatotoxicity (granulomatous hepatitis)", "setting": "[13]", "result": 0}, {"measurement": "Hepatotoxicity (acute)", "setting": "[14]", "result": 0}]}, {"molecule": "NS(=O)(=O)Cc1noc2ccccc12", "note": "[ZONISAMIDE]", "values": [{"measurement": "Hepatotoxicity (cytolytic)", "setting": "[1]", "result": 0}, {"measurement": "Hepatotoxicity (benign tumour)", "setting": "[2]", "result": 0}, {"measurement": "Hepatotoxicity (malignant tumour)", "setting": "[3]", "result": 0}, {"measurement": "Hepatotoxicity (chronic liver disease)", "setting": "[4]", "result": 0}, {"measurement": "Hepatotoxicity (choleostasis)", "setting": "[5]", "result": 0}, {"measurement": "Hepatotoxicity (cirrhosis)", "setting": "[6]", "result": 0}, {"measurement": "Hepatotoxicity (moderate)", "setting": "[7]", "result": 2}, {"measurement": "Hepatotoxicity (severe hepatitis)", "setting": "[8]", "result": 0}, {"measurement": "Hepatotoxicity (acute)", "setting": "[9]", "result": 0, "unit": "%"}, {"measurement": "Hepatotoxicity (moderate)", "setting": "[10]", "result": 4.2, "unit": "%"}, {"measurement": "Hepatotoxicity (steatosis)", "setting": "[11]", "result": 0}, {"measurement": "Hepatotoxicity (association with vascular disease)", "setting": "[12]", "result": 0}, {"measurement": "Hepatotoxicity (granulomatous hepatitis)", "setting": "[13]", "result": 0}, {"measurement": "Hepatotoxicity (acute)", "setting": "[14]", "result": 0}]}, {"molecule": "O=C(O)Cc1nn(Cc2nc3cc(C(F)(F)F)ccc3s2)c(=O)c2ccccc12", "note": "[ZOPOLRESTAT]", "values": [{"measurement": "Hepatotoxicity (cytolytic)", "setting": "[1]", "result": 0}, {"measurement": "Hepatotoxicity (benign tumour)", "setting": "[2]", "result": 0}, {"measurement": "Hepatotoxicity (malignant tumour)", "setting": "[3]", "result": 0}, {"measurement": "Hepatotoxicity (chronic liver disease)", "setting": "[4]", "result": 0}, {"measurement": "Hepatotoxicity (choleostasis)", "setting": "[5]", "result": 0}, {"measurement": "Hepatotoxicity (cirrhosis)", "setting": "[6]", "result": 0}, {"measurement": "Hepatotoxicity (moderate)", "setting": "[7]", "result": 1}, {"measurement": "Hepatotoxicity (severe hepatitis)", "setting": "[8]", "result": 0}, {"measurement": "Hepatotoxicity (acute)", "setting": "[9]", "result": 0, "unit": "%"}, {"measurement": "Hepatotoxicity (moderate)", "setting": "[10]", "result": 11.6, "unit": "%"}, {"measurement": "Hepatotoxicity (steatosis)", "setting": "[11]", "result": 0}, {"measurement": "Hepatotoxicity (association with vascular disease)", "setting": "[12]", "result": 0}, {"measurement": "Hepatotoxicity (granulomatous hepatitis)", "setting": "[13]", "result": 0}, {"measurement": "Hepatotoxicity (acute)", "setting": "[14]", "result": 0}]}, {"molecule": "COc1cccc2c1C(=O)c1c(O)c3c(c(O)c1C2=O)C[C@@](O)(/C(C)=N/NC(=O)c1ccccc1)C[C@@H]3O[C@H]1C[C@H](N)[C@H](O)[C@H](C)O1", "note": "[ZORUBICIN]", "values": [{"measurement": "Hepatotoxicity (cytolytic)", "setting": "[1]", "result": 0}, {"measurement": "Hepatotoxicity (benign tumour)", "setting": "[2]", "result": 0}, {"measurement": "Hepatotoxicity (malignant tumour)", "setting": "[3]", "result": 0}, {"measurement": "Hepatotoxicity (chronic liver disease)", "setting": "[4]", "result": 0}, {"measurement": "Hepatotoxicity (choleostasis)", "setting": "[5]", "result": 1}, {"measurement": "Hepatotoxicity (cirrhosis)", "setting": "[6]", "result": 0}, {"measurement": "Hepatotoxicity (moderate)", "setting": "[7]", "result": 1}, {"measurement": "Hepatotoxicity (severe hepatitis)", "setting": "[8]", "result": 1}, {"measurement": "Hepatotoxicity (acute)", "setting": "[9]", "result": 17.2, "unit": "%"}, {"measurement": "Hepatotoxicity (moderate)", "setting": "[10]", "result": 51.7, "unit": "%"}, {"measurement": "Hepatotoxicity (steatosis)", "setting": "[11]", "result": 0}, {"measurement": "Hepatotoxicity (association with vascular disease)", "setting": "[12]", "result": 0}, {"measurement": "Hepatotoxicity (granulomatous hepatitis)", "setting": "[13]", "result": 0}, {"measurement": "Hepatotoxicity (acute)", "setting": "[14]", "result": 1}]}, {"molecule": "CN(C)CCOC1=Cc2ccccc2Sc2ccc(Cl)cc21", "note": "[ZOTEPINE]", "values": [{"measurement": "Hepatotoxicity (cytolytic)", "setting": "[1]", "result": 0}, {"measurement": "Hepatotoxicity (benign tumour)", "setting": "[2]", "result": 0}, {"measurement": "Hepatotoxicity (malignant tumour)", "setting": "[3]", "result": 0}, {"measurement": "Hepatotoxicity (chronic liver disease)", "setting": "[4]", "result": 0}, {"measurement": "Hepatotoxicity (choleostasis)", "setting": "[5]", "result": 0}, {"measurement": "Hepatotoxicity (cirrhosis)", "setting": "[6]", "result": 0}, {"measurement": "Hepatotoxicity (moderate)", "setting": "[7]", "result": 8}, {"measurement": "Hepatotoxicity (severe hepatitis)", "setting": "[8]", "result": 0}, {"measurement": "Hepatotoxicity (acute)", "setting": "[9]", "result": 0, "unit": "%"}, {"measurement": "Hepatotoxicity (moderate)", "setting": "[10]", "result": 34.8, "unit": "%"}, {"measurement": "Hepatotoxicity (steatosis)", "setting": "[11]", "result": 0}, {"measurement": "Hepatotoxicity (association with vascular disease)", "setting": "[12]", "result": 0}, {"measurement": "Hepatotoxicity (granulomatous hepatitis)", "setting": "[13]", "result": 0}, {"measurement": "Hepatotoxicity (acute)", "setting": "[14]", "result": 0}]}, {"molecule": "OCCN1CCN(CC/C=C2/c3ccccc3Sc3ccc(Cl)cc32)CC1", "note": "[ZUCLOPENTHIXOL]", "values": [{"measurement": "Hepatotoxicity (cytolytic)", "setting": "[1]", "result": 0}, {"measurement": "Hepatotoxicity (benign tumour)", "setting": "[2]", "result": 0}, {"measurement": "Hepatotoxicity (malignant tumour)", "setting": "[3]", "result": 0}, {"measurement": "Hepatotoxicity (chronic liver disease)", "setting": "[4]", "result": 0}, {"measurement": "Hepatotoxicity (choleostasis)", "setting": "[5]", "result": 0}, {"measurement": "Hepatotoxicity (cirrhosis)", "setting": "[6]", "result": 0}, {"measurement": "Hepatotoxicity (moderate)", "setting": "[7]", "result": 1}, {"measurement": "Hepatotoxicity (severe hepatitis)", "setting": "[8]", "result": 0}, {"measurement": "Hepatotoxicity (acute)", "setting": "[9]", "result": 0, "unit": "%"}, {"measurement": "Hepatotoxicity (moderate)", "setting": "[10]", "result": 19, "unit": "%"}, {"measurement": "Hepatotoxicity (steatosis)", "setting": "[11]", "result": 0}, {"measurement": "Hepatotoxicity (association with vascular disease)", "setting": "[12]", "result": 0}, {"measurement": "Hepatotoxicity (granulomatous hepatitis)", "setting": "[13]", "result": 0}, {"measurement": "Hepatotoxicity (acute)", "setting": "[14]", "result": 0}]}]}
